Tests used:
mitochondria = experiment: QSLR factorial logistic regression of mitochondrial localization (affinity coefficients, cross-validated prediction); parameters: species or system human; settings: for αi^mito: influence of A group on mitochondrial localization, greater = stronger; for estimated A group affinity coefficient ai / estimated B group affinity coefficient bj: mitochondrial affinity; for estimated A group affinity coefficient ai: ±5 for groups always or never mitochondrial; for βj^mito: influence of B group on mitochondrial localization
From the text: The first column and first row contain the A group and B group labels. The second column and second row contain the estimated A group and B group affinity coefficients (ai and bj respectively). The interior of the table contains the value sij=ai+bj for each compound (where positive values of sij indicate predicted localization to mitochondria, and negative values of sij indicate predicted localization to a non-mitochondrial compartment). The subscript m indicates experimentally determined mitochondrial localization. The subscript o indicates experimentally determined non-mitochondrial localization. The darkened boxes indicate correctly predicted mitochondrial localizations under cross-validation.
Based on this matrix, factorial logistic regression (See, A. Agresti, Categorical Data Analysis, Wiley [2002]) was used to calculate mitochondrial affinity coefficients (ai and bj) for each A and B moiety. (Table 1). Since it is not necessary to observe all possible pairings between A and B building blocks to estimate the affinity coefficients, the QSLR approach can predict localization of unmeasured styryl molecules based on a minimal set of experimentally-determined localizations (see Methods). The methods of the present invention allow assessment of predictivity using the cross-validation technique by holding out one compound and fitting the affinity coefficients using the remaining compounds, predictivity can be assessed by comparing the actual localization of the held-out compound to its predicted localization. Repeating this for every measured compound in the library yields an error rate for the procedure.
Briefly, this technique assigns quantitative scores to each A group (αi^mito) and to each B group (βj^mito), in such a way that αi^mito+βj^mito is positive for compounds with mitochondrial localization, and is negative for compounds lacking mitochondrial localization. […] In additional embodiments, same analysis can be applied to organelles other than mitochondria, provided there are a sufficient number of localizations to specific non-mitochondrial organelles in the combinatorial library of interest for reliable statistical calculations.
In certain embodiments, the predictive performance of the above method was assessed using a cross-validation approach by calculating the proportion of all compounds that are correctly predicted. For cross-validation, each styryl product was set aside in sequence, and the factorial logistic model was fit to the remaining data. Then the resulting A and B scores for the held-out compound were summed. If the sum was positive, the held-out compound was predicted to be mitochondrial, while if the sum was negative, the held-out compound was predicted to be non-mitochondrial. […] The baseline performance of the method scored 104 correct out of 145, or 72%. This number is highly statistically significant compared to random guessing (p-value ˜10^−7). Thus, across the entire library, A and B moieties appear to contribute to localization in an independent, additive fashion.
In some embodiments, subcellular localization data were converted to binary (0/1) values by assigning a value Gij=1 if compound i,j localized to mitochondria (even if it localized to other […] as well), and assigning Gij=0 if compound i,j localized exclusively to any non-mitochondrial cellular structure. Compounds with no localization were omitted from this part of the analysis. The αi and βj coefficients for A or B groups that are always observed to localize to mitochondria, or that never localize to mitochondria, were set to +/−5, respectively. The binary localization data were analyzed using factorial logistic regression. […]

[1] = Additive decomposition of peak excitation and emission wavelengths (model coefficients of A and B groups); settings: for αi^em: influence of A group on peak emission wavelength; for αi^em / αi^ex: A group 1 as baseline; for αi^ex: influence of A group on peak excitation wavelength; for βj^em: influence of B group on peak emission wavelength; for βj^em / βj^ex: B group 1 as baseline; for βj^ex: influence of B group on peak excitation wavelength
From the text: The chemical structure of the styryl library is illustrated in FIG. 3. […] Initial analysis focused on measurements of peak emission and excitation wavelength obtained for all styryl products showing a single, localized peak (there were 256 such compounds for emission wavelength, and 193 compounds for excitation wavelength). […] The wavelength for the styryl compound formed by joining A group i with B group j is denoted as λij (or more specifically, λij^ex for excitation wavelength and λij^em for emission wavelength). The additive model λij=ai+βj+εij was fit to the data using least squares yielding parameters αi^ex, αi^em, βj^ex, and βj^em that quantify the influence of each A and B group on the spectrum of the styryl product. […] (FIGS. 8A-8B). […] The predictions were made ignoring interactions between the two functional moieties in the styryl compound. The predicted values were obtained without bias, by holding out the data point to be predicted when training the model.
In preferred embodiments, using the cross-validation approach disclosed herein, each compound was held out in sequence, the model was trained using the remaining compounds, then the wavelength value for the held-out compound was predicted based on the resulting fitted model. This process produced correlations between measured and predicted values of ρ^em=0.78 (emission) and ρ^ex=0.69 (excitation).
Based on this analysis, the contribution of the A and B functional groups to the fluorescence of the styryl product is quantified using the fitted coefficients αi^ex, βj^ex, […], and βj^em. Since these coefficients are on a scale without origin, in some embodiments, the invention uses the first A group and B group as a baseline, so […], β1^ex=0, and so on. Table 3 contains the model coefficients of all A and B groups for peak excitation and emission wavelength.
Greater values of αi^ex, αi^em, βj^ex, and βj^em indicate greater peak wavelength. Greater values of αi^mito and […] indicate stronger mitochondrial localization. A groups 40 and 41 were not screened for localization. A groups 2, 29, and 33 only formed fluorescent products with a single B group, so were not included in the spectral analysis.
In some embodiments, the wavelength values for peak excitation and emission were fit to the additive model λij=αi+βj+εij, where εij denotes error that is made as small as possible in the fitting process. Using least squares to minimize the function [formula] over all compounds having experimental data yields coefficient estimates αi for each A group and βj for each B group. One set of coefficient estimates is obtained for the excitation values and another set is obtained for the emission values. To predict the wavelength of a new compound formed from A and B groups i* and j* the sum αi*+βj* is used.
In some embodiments, for both the spectral and localization analysis, cross-validation was used to obtain unbiased estimates of the prediction performance. Each compound was held out in sequence, and the coefficients αi and βj were fit to the remaining compounds. These values were then used to form a prediction for the held out compound, then the predicted and experimental values were compared to obtain a measure of the accuracy of prediction. Since the wavelength values are on a continuous scale, the predicted values were compared to the experimental values using Pearson correlation coefficients. The localization values are dichotomous, so the proportion of matching predictions was used to compare predicted and experimental localization values.

## CN(C)c1ccc(C=O)c2ccccc12 [A group 27]
mitochondria
  αi^mito: −0.3
  estimated A group affinity coefficient ai: −0.3
[1]
  influence of group on peak wavelength: strongly contribute towards the red end of the spectrum
  αi^em: 72.0 nm
  αi^ex: 11.1 nm

## O=Cc1ccc2c(c1)Cc1ccccc1-2 [A group 28]
mitochondria
  αi^mito: −5.0
  estimated A group affinity coefficient ai: −5.0
[1]
  αi^em: 44.9 nm
  αi^ex: 2.4 nm

## O=Cc1ccccc1F [A group 29]
mitochondria
  αi^mito: 5.0
  estimated A group affinity coefficient ai: 5.0
[1]
  αi^em: −8.0 nm

## O=Cc1ccc(F)cc1 [A group 30]
mitochondria
  influence of A group on mitochondrial localization: mitochondrial attraction
  αi^mito: 5.0
  estimated A group affinity coefficient ai: 5.0
[1]
  influence of group on peak wavelength: redder
  αi^em: 50.1 nm
  αi^ex: 7.4 nm

## O=Cc1c(F)c(F)c(F)c(F)c1F [A group 31]
mitochondria
  αi^mito: 5.0
  estimated A group affinity coefficient ai: 5.0
[1]
  αi^em: 6.9 nm
  αi^ex: −22.4 nm

## O=Cc1cccc2ccccc12 [A group 32]
mitochondria
  αi^mito: 5.0
  estimated A group affinity coefficient ai: 5.0
[1]
  αi^em: −15.0 nm
  αi^ex: −36.1 nm

## O=Cc1ccc2ccccc2c1 [A group 33]
mitochondria
  influence of A group on mitochondrial localization: mitochondrial attraction
  αi^mito: 5.0
  estimated A group affinity coefficient ai: 5.0
[1]
  influence of group on peak wavelength: bluer
  αi^em: −26.5 nm

## O=Cc1c2ccccc2cc2ccccc12 [A group 34]
mitochondria
  influence of A group on mitochondrial localization: mitochondrial repulsion
  αi^mito: −5.0
  estimated A group affinity coefficient ai: 5.0
[1]
  influence of group on peak wavelength: redder
  αi^em: 58.8 nm
  αi^ex: 14.1 nm

## O=CC=Cc1ccccc1 [A group 35]
mitochondria
  αi^mito: −1.8
  estimated A group affinity coefficient ai: −1.8
[1]
  αi^em: −8.3 nm
  αi^ex: 0.0 nm

## O=CC=Cc1ccccc1[N+](=O)[O-] [A group 36]
mitochondria
  αi^mito: 5.0
  estimated A group affinity coefficient ai: 5.0
[1]
  influence of group on peak wavelength: the far red shift is not observed
  αi^em: 3.8 nm
  αi^ex: −25.3 nm

## CN(C)c1ccc(C=CC=O)cc1 [A group 37]
mitochondria
  αi^mito: −0.9
  estimated A group affinity coefficient ai: −0.9
[1]
  influence of group on peak wavelength: strongly contribute towards the red end of the spectrum
  αi^em: 122.1 nm
  αi^ex: 82.9 nm

## COc1cc(OC)c(OC)cc1C=O [A group 38]
mitochondria
  αi^mito: −1.3
  estimated A group affinity coefficient ai: −1.3
[1]
  αi^em: 22.2 nm
  αi^ex: −15.6 nm

## O=Cc1ccc2c(c1)OCO2 [A group 39]
mitochondria
  αi^mito: 0.0
  estimated A group affinity coefficient ai: 0.0
[1]
  αi^em: −25.3 nm
  αi^ex: −28.3 nm

## Cc1cc[n+](C)cc1.[I-] [B group 1]
mitochondria
  βj^mito: 1.9
  estimated B group affinity coefficient bj: 1.9
[1]
  βj^em: 0.0 nm
  βj^ex: 0.0 nm

## Cc1cc[n+](C23CC4CC(CC(C4)C2)C3)cc1.[Br-] [B group 2]
mitochondria
  βj^mito: 2.0
  estimated B group affinity coefficient bj: 2.0
[1]
  βj^em: 4.3 nm
  βj^ex: 4.9 nm

## Cc1cccc[n+]1C.[I-] [B group 3]
mitochondria
  βj^mito: 4.2
  estimated B group affinity coefficient bj: 4.2
[1]
  βj^em: −2.7 nm
  βj^ex: −12.7 nm

## Cc1ccc[n+](C)c1C.[I-] [B group 4]
mitochondria
  βj^mito: 3.0
  estimated B group affinity coefficient bj: 3.0
[1]
  βj^em: −23.2 nm
  βj^ex: −32.3 nm

## CCc1ccc(C)[n+](C)c1.[I-] [B group 5]
mitochondria
  βj^mito: 2.2
  estimated B group affinity coefficient bj: 2.3
[1]
  βj^em: −7.6 nm
  βj^ex: −1.6 nm

## Cc1cc[n+](C)c(Br)c1.[I-] [B group 6]
mitochondria
  βj^mito: −5.0
  estimated B group affinity coefficient bj: −5.0
[1]
  βj^em: 3.5 nm
  βj^ex: 27.7 nm

## Cc1cc[n+](C)c2ccccc12.[I-] [B group 7]
mitochondria
  βj^mito: 3.5
  estimated B group affinity coefficient bj: 3.5
[1]
  influence of group on peak wavelength: strongly contribute towards the red end of the spectrum
  βj^em: 63.7 nm
  βj^ex: 29.6 nm

## Cc1ccc2ccccc2[n+]1C.[I-] [B group 8]
mitochondria
  βj^mito: 0.4
  estimated B group affinity coefficient bj: 0.4
[1]
  influence of group on peak wavelength: strongly contribute towards the red end of the spectrum
  βj^em: 64.8 nm
  βj^ex: 53.0 nm

— patent publication US20070111251A1, “Chemical address tags” (priority 2003, published 2007)
